Experimental data reported in patent US20240252677A1, “ONE-COMPONENT DELIVERY SYSTEM FOR NUCLEIC ACIDS” (The Trustees of the University of Pennsylvania, priority 2021, published 2024).

How the values were obtained:
[1] = pKa measurements of individual IAJD molecules by titration; format: physicochemical; settings: ethanol saturated with NaCl, titrated with 0.1 M aqueous HCl; Table 15; individual IAJD molecule, titration
Protocol: pKa measurements of individual IAJD Molecules was performed as follows. IAJD Molecules were first dissolved in ethanol (Sat. with NaCl) at a concentration of 1.5 mg/mL and the solution volume was 3 mL.
Then 0.1 M HCl solution was added to the above ethanol solution with an increment of 7.5 μL. The resulting pH after each addition of HCl solution was measured by an Thermo Scientific Orion Star A121 meter with Thermo Scientific Orion 8220BNWP pH probe. pKa was determined using the half equivalence point titration.

lung = assay: In vivo mRNA delivery, IVIS imaging of organs: lung; design: species or system mice; key to Organs with luminescence: lung: strong: Strong meant the luminescence intensity in that organ was relatively high, compared to other organs; weak: Weak meant the luminescence intensity in that organ was relatively low, compared to other organs; settings: for Organs with luminescence: lung (weak/strong): Table 14; for Organs with luminescence: lung: Table 17, mice, IVIS, 4-6 h after injection, intensity relative to other organs
Protocol: (§1) The exposure time was 1 min.
(§2) Tissue luminescence signal was measured on the IVIS imaging system using an exposure time of 60 seconds using medium binning (binning=8) to ensure that the signal obtained was within operative detection range. […] Bioluminescence imaging was performed as described above.
(§3) Tissue luminescence signal was measured on the IVIS imaging system using a certain exposure time (60, 30 or 15 seconds) and medium binning (binning=8) to ensure that the signal obtained was within operative detection range.

liver = assay: In vivo mRNA delivery, IVIS imaging of organs: liver; design: species or system mice; key to Organs with luminescence: liver: strong: Strong meant the luminescence intensity in that organ was relatively high, compared to other organs; weak: Weak meant the luminescence intensity in that organ was relatively low, compared to other organs; settings: for Organs with luminescence: liver (weak/strong): Table 14; for Organs with luminescence: liver: Table 17, mice, IVIS, 4-6 h after injection, intensity relative to other organs
Protocol: as §1, §2, §3

[2] = Dimensions (size, PDI) of DNPs co-assembled from IAJDs and Luc-mRNA by DLS; format: physicochemical
Protocol: Dynamic Light Scattering (DLS) for the DNPs was performed in buffer with a Malvern Instruments particle sizer (Zetasizer Nano S, Malvern Instruments, UK) equipped with 4 mW He—Ne laser 633 nm and avalanche photodiode positioned at […] to the beam and temperature-controlled cuvette holder. Instrument parameters were determined automatically along with measurement times.
Formulation of DNPs Containing mRNA-Luc: IAJDs were dissolved in ethanol with various initial concentrations (5-160 mg/mL). Nucleoside-modified mRNA encoding firefly luciferase (mRNA-Luc) was dissolved in water with various initial concentrations (1-4 mg/mL). 12.5 μL of mRNA solution was placed into a clean RNAs free eppendorf (1.5 mL) and mixed with 463 μL of citrate buffer (10 mM, pH 3.0)/acetate buffer (10 mM). For encapsulation of mRNA into IAJDs, 25 μL of IAJDs of the ethanol stock solution was rapidly injected into mRNA solution in citrate or acetate buffer followed by vortex for 5 seconds.
(§4) Dynamic Light Scattering (DLS) for the sizes and polydispersities of DNPs was performed on a Malvern Instruments particle sizer (Zetasizer Nano S, Malvern Instruments, UK) equipped with 4 mW He—Ne laser 633 nm and avalanche photodiode positioned at 1750 to the beam and temperature-controlled cuvette holder. Instrument parameters were determined automatically along with measurement times. Sample solution (0.4 mL) was placed in a semi-micro cuvette (1.6 mL, polystyrene, 10×10×45 mm, manufactured by Greiner Bio-One) and the measurements were performed at 23° C.
Formulation of DNPs obtained by co-assembly of IAJDs and Luc-mRNA was performed as follows. IAJDs were dissolved in ethanol with an initial concentration of 80 mg/mL. Nucleoside-modified mRNA encoding firefly luciferase (Luc-mRNA) was dissolved in UltraPure DNase/RNase-free distilled water with an initial concentration of 4.0 mg/mL. 12.5 μL of Luc-mRNA solution was placed into a clean RNAs free eppendorf (1.5 mL) and 463 μL acetate buffer (10 mM, pH 4.0) was added. Then, 25 μL of IAJD in the ethanol stock solution was rapidly injected into the Luc-mRNA solution in acetate buffer followed by vortex for 5 seconds.
as §4, with “dimensions (sizes” for “sizes”, “polydispersities)” for “polydispersities”, “175°” for “1750”, “set up” for “determined”, “(c.a. 0.4” for “(0.4”, “mm,” for “mm, manufactured by”
Formulation of DNPs Co-assembled from IAJDs and Luc-mRNA: nucleoside-modified mRNA encoding firefly luciferase (Luc-mRNA) was dissolved in UltraPure DNase/RNase-free distilled water with an initial concentration of 4.0 mg/mL. IAJD molecules were dissolved in ethanol with an initial concentration of 80 mg/mL. 12.5 μL of Luc-mRNA solution was taken and placed into a clean RNAs free eppendorf (1.5 mL). Then 463 μL of acetate buffer (10 mM, pH 4.0) was added. Afterwards, 25 μL of IAJD in the ethanol stock solution was taken and rapidly injected into the above Luc-mRNA solution in acetate buffer followed by vortex for 5 seconds.

[3] = Table 12, DNPs, IAJD 4 mg/mL + Luc-mRNA 0.10 mg/mL, acetate buffer 10 mM pH 4.0
[4] = Table 13, DNPs, IAJD 4 mg/mL + Luc-mRNA 0.10 mg/mL, acetate buffer pH 4.0
[5] = Table 14, DNPs, IAJD 4 mg/mL + Luc-mRNA 0.10 mg/mL, acetate buffer pH 4.0
[6] = Table 17, DNPs used in vivo, IAJD 4 mg/mL, Luc-mRNA 0.10 mg/mL, acetate pH 4.0

pKa [1]	PDI [2, 3]	Size (d, nm) [2, 3]	PDI [2, 4]	Size (d, nm) [2, 4]	PDI [2, 5]	Size (d, nm) [2, 5]	PDI [2, 6]	Size (d, nm) [2, 6]	SMILES	Organs with luminescence: lung (weak/strong) (lung; imaging 5 h after injection)	Organs with luminescence: liver (weak/strong) (liver; imaging 5 h after injection)	Organs with luminescence: lung (weak/strong) (lung; imaging 6 h after injection)	Organs with luminescence: liver (weak/strong) (liver; imaging 6 h after injection)	Organs with luminescence: lung (lung)	Organs with luminescence: liver (liver)
6.4	0.267	110 nm	0.267	110 nm	0.267	110 nm			CCCCCCCCCOc1cc(COC(=O)CCCN2CCN(C)CC2)cc(OCCCCCCCCC)c1 [IAJD 77, 3,5-Bis(nonyloxy)benzyl 4-(4-methylpiperazin-1-yl)butanoate]	Lung (weak),	liver (weak),				
6.25	0.763	352 nm	0.763	352 nm	0.763	352 nm			CCCCCCCCCCCCOc1cc(COC(=O)CCCN2CCN(C)CC2)cc(OCCCCCCCCCCCC)c1OCCCCCCCCCCCC [IAJD 79, 3,4,5-Tris(dodecyloxy)benzyl 4-(4-methylpiperazin-1-yl)butanoate]			Lung (weak),	liver (weak),		
6.19	0.287	111 nm	0.287	111 nm	0.287	111 nm	0.287	111 nm	CCCCCCCCCCCCCCCCCCOc1cc(COC(=O)CCCN2CCN(C)CC2)cc(OCCCCCCCCCCC)c1 [IAJD 81, 3-(Octadecyloxy)-5-(undecyloxy)benzyl 4-(4-methylpiperazin-1-yl)butanoate]			Lung (weak),	liver (strong),	Lung (weak),	liver (strong),
6.3	0.430	143 nm	0.430	143 nm	0.430	143 nm			CCCCCCCCCCCCOCC(COCCCCCCCCCCCC)(COCCCCCCCCCCCC)COC(=O)CCCN1CCN(CCO)CC1 [IAJD 83, 3-(Dodecyloxy)-2,2-bis((dodecyloxy)methyl)propyl 4-(4-(2-hydroxyethyl)piperazin-1-yl)butanoate]	Lung (weak),	liver (weak),				
6.19	0.303	171 nm	0.303	171 nm	0.303	171 nm			CCCCCCCCCCCCOc1cc(COC(=O)CCN2CCN(C)CC2)cc(OCCCCCCCCCCCC)c1 [IAJD 84, 3,5-Bis(dodecyloxy)benzyl 3-(4-methylpiperazin-1-yl)propanoate]	Lung (weak),	liver (weak),				
6.21	0.250	102 nm	0.250	102 nm	0.250	102 nm			CCCCCCCOC(=O)CCCCOc1cc(COC(=O)CCCN2CCN(C)CC2)cc(OCCCCC(=O)OCCCCCCC)c1 [IAJD 85, Diheptyl 5,5′-((5-(((4-(4-methylpiperazin-1-yl)butanoyl)oxy)methyl)-1,3-phenylene)bis(oxy)) dipentanoate]	Lung (weak),	liver (weak),				
6.24	0.234	91 nm	0.234	91 nm	0.234	91 nm	0.234	91 nm	CCCCCCCCCCCCCCCCOc1cc(COC(=O)CCCN2CCN(C)CC2)cc(OCCCCCCCCCCC)c1 [IAJD 86, 3-(Hexadecyloxy)-5-(undecyloxy)benzyl 4-(4-methylpiperazin-1-yl)butanoate]	Lung (weak),	liver (strong),			Lung (weak),	liver (strong),
6.49	0.486	146 nm	0.486	146 nm	0.486	146 nm			CCCCC(CC)COc1cc(COC(=O)CCCN2CCN(CCO)CC2)cc(OCC(CC)CCCC)c1 (centres unmarked) [IAJD 87, 3,5-Bis((2-ethylhexyl)oxy)benzyl 4-(4-(2-hydroxyethyl)piperazin-1-yl)butanoate]			Lung (weak),	liver (weak),		
6.28	0.342	100 nm	0.342	100 nm	0.342	100 nm			CCCCCCCCOc1cc(COC(=O)CCCN2CCN(C)CC2)cc(OCCCCCCCC)c1 [IAJD 88, 3,5-Bis(octyloxy)benzyl 4-(4-methylpiperazin-1-yl)butanoate]			Lung (weak),	liver (weak),		
6.45	0.467	149 nm	0.467	149 nm	0.467	149 nm			CCCCCCCCOc1cc(COC(=O)CCCN2CCN(CCO)CC2)cc(OCCCCCCCC)c1 [IAJD 89]			Lung (weak),	liver (weak),		
6.48	0.498	188 nm	0.498	188 nm	0.498	188 nm			CCCCCCCCCCOc1cc(COC(=O)CCCN2CCN(CCO)CC2)cc(OCCCCCCCCCC)c1 [IAJD 91, 3,5-Bis(decyloxy)benzyl 4-(4-(2-hydroxyethyl)piperazin-1-yl)butanoate]			Lung (weak),	liver (weak),		
